Patent publication US20260265251A1 (priority 2023, published 2026)

What was measured:
[1] = tested on: SK-MEL-3 cells; assay: SK-MEL-3 cell proliferation assay; assay type: cell-based; details: Homo sapiens, SK-MEL3; SK-MEL-3 cells, 72 hours, CellTiter-Glo; read-out: SK-MEL-3 IC50
[2] = tested on: A2058 cells; assay: A2058 cell proliferation assay; assay type: cell-based; details: Homo sapiens, 96 hours, CellTiter-Glo

Q: With `O=c1[nH]c2cc3cc(-c4ccc(C(F)F)nc4Cl)ccc3nc2[nH]1` [Example 35, 7-(2-chloro-6-(difluoromethyl)pyridin-3-yl)-1,3-dihydro-2H-imidazo[4,5-b]quinolin-2-one] as the compound, how does the IC50 [1] read?
A: The IC50 was 0.6 nM.

Q: What about the IC50 [2] of the same compound?
A: The IC50 was 5.2 nM.

Q: For `O=c1[nH]c2cc3c(nc2[nH]1)CCN(c1cnn(C(F)F)c1Cl)C3` [Example 50, 7-(5-chloro-1-(difluoromethyl)-1H-pyrazol-4-yl)-1,3,5,6,7,8-hexahydro-2H-imidazo[4,5-b][1,6]naphthyridin-2-one], which IC50 [1] is on record?
A: Its IC50 is 1.2 nM.

Q: And the IC50 [2]?
A: The IC50 was 7.5 nM.

Q: Which results are given for `O=c1[nH]c2cc3c(nc2[nH]1)CCN(c1cccc(C(F)(F)F)n1)C3` [Example 58, 7-(6-(trifluoromethyl)pyridin-2-yl)-1,3,5,6,7,8-hexahydro-2H-imidazo[4,5-b][1,6]naphthyridin-2-one]?
A: IC50 [1]: 0.3 nM; IC50 [2]: 1.2 nM

Q: With `O=c1[nH]c2cc3cc(-c4onc(C(F)F)c4Cl)ccc3nc2[nH]1` [Example 34, 7-(4-chloro-3-(difluoromethyl)isoxazol-5-yl)-1,3-dihydro-2H-imidazo[4,5-b]quinolin-2-one] as the compound, how does the IC50 [1] read?
A: Its IC50 is 0.09 nM.

Q: What about the IC50 [2] of the same compound?
A: Its IC50 is 0.19 nM.

Q: With `O=c1[nH]c2cc3c(Cl)c(-c4cnn(C(F)F)c4Cl)ccc3nc2[nH]1` [Example 86, 8-chloro-7-(5-chloro-1-(difluoromethyl)-1H-pyrazol-4-yl)-1,3-dihydro-2H-imidazo[4,5-b]quinolin-2-one] as the compound, how does the IC50 [1] read?
A: Its IC50 is 0.09 nM.

Q: What about the IC50 [2] of the same compound?
A: Its IC50 is 0.9 nM.

Q: With `O=c1[nH]c2cc3cc(-c4ccc(C(F)(F)F)nc4Cl)ccc3nc2[nH]1` [Example 17, 7-(2-chloro-6-(trifluoromethyl)pyridin-3-yl)-1,3-dihydro-2H-imidazo[4,5-b]quinolin-2-one] as the compound, how does the IC50 [1] read?
A: Its IC50 is 1.1 nM.

Q: And the IC50 [2]?
A: Its IC50 is 11 nM.

Q: With `O=c1[nH]c2cc3c(nc2[nH]1)CC[C@@H](c1cnn(C(F)F)c1Cl)C3` (single isomer, unassigned) [Example 64-B, (*R)-7-(5-chloro-1-(difluoromethyl)-1H-pyrazol-4-yl)-1,3,5,6,7,8-hexahydro-2H-imidazo[4,5-b]quinolin-2-one] as the compound, how does the IC50 [1] read?
A: Its IC50 is 0.5 nM.

Q: And the IC50 [2]?
A: Its IC50 is 1.79 nM.

Q: With `N#Cc1ccc(-c2ccc3nc4[nH]c(=O)[nH]c4cc3c2)c(Cl)c1` [Example 14, 7-(2-chloro-4-cyanophenyl)-1,3-dihydro-2H-imidazo[4,5-b]quinolin-2-one] as the compound, how does the IC50 [1] read?
A: Its IC50 is 0.3 nM.

Q: And the IC50 [2]?
A: The IC50 was 1.1 nM.

Q: What does the source list for `O=c1[nH]c2cc3c(nc2[nH]1)CCN(c1ncc(F)cc1Cl)C3` [Example 23, 7-(3-chloro-5-fluoropyridin-2-yl)-1,3,6,7,8-hexahydro-2H-imidazo[4,5-b][1,6]naphthyridin-2-one]?
A: IC50 [1]: 4.4 nM; IC50 [2]: 44.8 nM

Q: Which results are given for `O=c1[nH]c2cc3cc(-c4cnn(C(F)F)c4Br)ccc3nc2[nH]1` [Example 32, 7-(5-bromo-1-(difluoromethyl)-1H-pyrazol-4-yl)-1,3-dihydro-2H-imidazo[4,5-b]quinolin-2-one]?
A: IC50 [1]: 0.05 nM; IC50 [2]: 0.3 nM

Q: What does the source list for `O=c1[nH]c2cc3cc(-c4nn(C(F)F)cc4Cl)ccc3nc2[nH]1` [Example 15, 7-(4-chloro-1-(difluoromethyl)-1H-pyrazol-3-yl)-1,3-dihydro-2H-imidazo[4,5-b]quinolin-2-one]?
A: IC50 [1]: 0.7 nM; IC50 [2]: 3.9 nM

Q: With `O=c1[nH]c2cc3cc(-c4ccc(C(F)F)cc4Cl)ccc3nc2[nH]1` [Example 36, 7-(2-chloro-4-(difluoromethyl)phenyl)-1,3-dihydro-2H-imidazo[4,5-b]quinolin-2-one] as the compound, how does the IC50 [1] read?
A: Its IC50 is 0.9 nM.

Q: What about the IC50 [2] of the same compound?
A: Its IC50 is 5.2 nM.

Q: What does the source list for `O=c1[nH]c2cc3cc(-c4ccc(F)cc4Cl)ccc3nc2[nH]1` [Example 3, 7-(2-chloro-4-fluorophenyl)-1,3-dihydro-2H-imidazo[4,5-b]quinolin-2-one]?
A: IC50 [1]: 0.5 nM; IC50 [2]: 1.2 nM

Q: Which results are given for `O=c1[nH]c2cc3c(Cl)c(-c4ccc(F)cn4)ccc3nc2[nH]1` [Example 24, 8-chloro-7-(5-fluoropyridin-2-yl)-1,3-dihydro-2H-imidazo[4,5-b]quinolin-2-one]?
A: IC50 [1]: 0.9 nM; IC50 [2]: 2.7 nM

Q: Which results are given for `O=c1[nH]c2cc3c(nc2[nH]1)CCN(c1ccc(C(F)(F)F)nc1Cl)C3` [Example 48, 7-(2-chloro-6-(trifluoromethyl)pyridin-3-yl)-1,3,5,6,7,8-hexahydro-2H-imidazo[4,5-b][1,6]naphthyridin-2-one]?
A: IC50 [1]: 5.2 nM; IC50 [2]: 74.6 nM

Q: `O=c1[nH]c2cc3cc(-c4cnn(C(F)F)c4Cl)ccc3nc2[nH]1` [Example 13, 7-(5-chloro-1-(difluoromethyl)-1H-pyrazol-4-yl)-1,3-dihydro-2H-imidazo[4,5-b]quinolin-2-one] was tested. Which IC50 [1] did it give?
A: Its IC50 is 0.03 nM.

Q: What about the IC50 [2] of the same compound?
A: The IC50 was 0.1 nM.

Q: What does the source list for `O=c1[nH]c2cc3cc(-c4cnn(C(F)F)c4C(F)(F)F)ccc3nc2[nH]1` [Example 30, 7-(1-(difluoromethyl)-5-(trifluoromethyl)-1H-pyrazol-4-yl)-1,3-dihydro-2H-imidazo[4,5-b]quinolin-2-one]?
A: IC50 [1]: 0.1 nM; IC50 [2]: 0.9 nM

Q: Which results are given for `[2H]C([2H])([2H])Oc1ccc(-c2ccc3nc4[nH]c(=O)[nH]c4cc3c2)c(Cl)n1` [Example 27, 7-(2-chloro-6-(methoxy-d3)pyridin-3-yl)-1,3-dihydro-2H-imidazo[4,5-b]quinolin-2-one]?
A: IC50 [1]: 3.1 nM; IC50 [2]: 20.2 nM

Q: How did the IC50 [1] turn out when `O=c1[nH]c2cc3c(nc2[nH]1)CCC(c1cnn(C(F)F)c1Cl)C3` (racemic) [Example 64, 7-(5-chloro-1-(difluoromethyl)-1H-pyrazol-4-yl)-1,3,5,6,7,8-hexahydro-2H-imidazo[4,5-b]quinolin-2-one] was run?
A: Its IC50 is 0.08 nM.

Q: What about the IC50 [2] of the same compound?
A: Its IC50 is 0.4 nM.

Q: What does the source list for `Cc1c(-c2ccc3nc4[nH]c(=O)[nH]c4cc3c2)cnn1C(F)F` [Example 44, 7-(1-(difluoromethyl)-5-methyl-1H-pyrazol-4-yl)-1,3-dihydro-2H-imidazo[4,5-b]quinolin-2-one]?
A: IC50 [1]: 0.07 nM; IC50 [2]: 0.17 nM

Q: `O=c1[nH]c2cc3c(nc2[nH]1)CCN(c1ccc(F)cc1Cl)C3` [Example 21, 7-(2-chloro-4-fluorophenyl)-1,3,5,6,7,8-hexahydro-2H-imidazo[4,5-b][1,6]naphthyridin-2-one] was tested. Which IC50 [1] did it give?
A: The IC50 was 4.5 nM.

Q: What about the IC50 [2] of the same compound?
A: Its IC50 is 38.4 nM.

Q: Which results are given for `O=c1[nH]c2cc3c(nc2[nH]1)CC[C@H](c1cnn(C(F)F)c1Cl)C3` (single isomer, unassigned) [Example 64-A, (*S)-7-(5-chloro-1-(difluoromethyl)-1H-pyrazol-4-yl)-1,3,5,6,7,8-hexahdro-2H-imidazo[4,5-b]quinolin-2-one]?
A: IC50 [1]: 0.04 nM; IC50 [2]: 0.29 nM

Q: `N#Cc1ccc(N2CCc3nc4[nH]c(=O)[nH]c4cc3C2)c(Cl)c1` [Example 22, 7-(2-chloro-4-cyanophenyl)-1,3,5,6,7,8-hexahydro-2H-imidazo[4,5-b][1,6]naphthyridin-2-one] was tested. Which IC50 [1] did it give?
A: Its IC50 is 1.6 nM.

Q: What about the IC50 [2] of the same compound?
A: The IC50 was 11.9 nM.
